Each block holds one molecule with its values, some of them ahead of it.
Assays:
Histone deacetylase 5 [1] = target: T1, Histone deacetylase 5 (Homo sapiens, UniProt Q9UQL6); test: Inhibition of human HDAC5 expressed in baculovirus infected sf9 cells using (Boc-Lys(trifluoroacetyl)-AMC) as substrate by fluorescence-based assay
Histone deacetylase 9 [2] = target: T2, Histone deacetylase 9 (Homo sapiens, UniProt Q9UKV0); test: Inhibition of human HDAC9 expressed in baculovirus infected sf9 cells using (Boc-Lys(trifluoroacetyl)-AMC) as substrate by fluorescence-based assay
T2 sequence (Q9UKV0 whole entry, the tested form may be a part): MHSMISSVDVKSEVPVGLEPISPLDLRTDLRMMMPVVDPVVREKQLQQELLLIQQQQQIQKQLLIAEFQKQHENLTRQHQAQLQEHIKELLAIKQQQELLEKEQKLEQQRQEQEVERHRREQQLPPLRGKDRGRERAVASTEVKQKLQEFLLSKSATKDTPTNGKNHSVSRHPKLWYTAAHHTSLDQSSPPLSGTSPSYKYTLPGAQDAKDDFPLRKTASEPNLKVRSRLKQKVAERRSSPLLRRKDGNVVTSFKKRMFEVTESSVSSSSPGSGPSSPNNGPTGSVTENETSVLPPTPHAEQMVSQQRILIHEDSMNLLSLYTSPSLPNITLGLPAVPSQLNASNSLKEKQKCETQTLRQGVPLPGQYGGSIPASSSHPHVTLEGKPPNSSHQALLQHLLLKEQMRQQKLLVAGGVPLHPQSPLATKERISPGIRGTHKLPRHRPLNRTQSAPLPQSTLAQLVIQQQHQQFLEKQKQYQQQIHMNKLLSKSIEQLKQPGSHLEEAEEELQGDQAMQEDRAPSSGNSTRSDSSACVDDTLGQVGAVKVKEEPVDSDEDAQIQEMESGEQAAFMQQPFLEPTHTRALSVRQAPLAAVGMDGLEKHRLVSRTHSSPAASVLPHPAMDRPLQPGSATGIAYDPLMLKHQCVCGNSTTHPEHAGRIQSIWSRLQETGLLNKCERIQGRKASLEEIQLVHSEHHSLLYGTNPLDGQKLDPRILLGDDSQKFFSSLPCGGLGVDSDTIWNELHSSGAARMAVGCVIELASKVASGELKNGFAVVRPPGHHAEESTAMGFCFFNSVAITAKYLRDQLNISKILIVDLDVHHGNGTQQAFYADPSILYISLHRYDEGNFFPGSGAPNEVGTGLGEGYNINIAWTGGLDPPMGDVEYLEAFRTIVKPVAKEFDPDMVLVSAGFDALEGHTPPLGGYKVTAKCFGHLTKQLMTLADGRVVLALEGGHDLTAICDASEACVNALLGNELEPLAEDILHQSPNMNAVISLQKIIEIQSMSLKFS

Histone deacetylase 8 = target: T3, Histone deacetylase 8 (Homo sapiens, UniProt Q9BY41); test: Inhibition of recombinant human C-terminal His-tagged HDAC8 expressed in baculovirus infected sf9 cells using p53 (379 to 382 residues) (Arg-His-Lys(Ac)-Lys(Ac)) by fluorimetric assay
T3 sequence (Q9BY41 whole entry): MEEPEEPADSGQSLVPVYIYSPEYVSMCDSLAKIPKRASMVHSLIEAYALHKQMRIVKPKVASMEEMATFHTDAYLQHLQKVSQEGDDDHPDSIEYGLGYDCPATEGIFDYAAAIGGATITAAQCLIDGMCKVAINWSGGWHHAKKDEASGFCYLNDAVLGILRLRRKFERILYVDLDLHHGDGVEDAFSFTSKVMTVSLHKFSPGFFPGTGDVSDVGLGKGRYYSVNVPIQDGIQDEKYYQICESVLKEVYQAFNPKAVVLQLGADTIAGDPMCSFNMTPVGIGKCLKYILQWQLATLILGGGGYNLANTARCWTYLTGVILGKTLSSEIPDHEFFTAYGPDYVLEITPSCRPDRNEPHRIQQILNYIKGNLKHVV

[3] = target: T4, Polyamine deacetylase HDAC10 (Homo sapiens, UniProt Q969S8); test: Inhibition of recombinant human N-terminal FLAG-tagged HDAC10 (2 to 631 residues) expressed in baculovirus infected sf9 cells using p53 (379 to 382 residues) (Arg-His-Lys(Ac)-Lys(Ac)) as substrate by fluorimetric assay
T4 sequence (Q969S8 whole entry): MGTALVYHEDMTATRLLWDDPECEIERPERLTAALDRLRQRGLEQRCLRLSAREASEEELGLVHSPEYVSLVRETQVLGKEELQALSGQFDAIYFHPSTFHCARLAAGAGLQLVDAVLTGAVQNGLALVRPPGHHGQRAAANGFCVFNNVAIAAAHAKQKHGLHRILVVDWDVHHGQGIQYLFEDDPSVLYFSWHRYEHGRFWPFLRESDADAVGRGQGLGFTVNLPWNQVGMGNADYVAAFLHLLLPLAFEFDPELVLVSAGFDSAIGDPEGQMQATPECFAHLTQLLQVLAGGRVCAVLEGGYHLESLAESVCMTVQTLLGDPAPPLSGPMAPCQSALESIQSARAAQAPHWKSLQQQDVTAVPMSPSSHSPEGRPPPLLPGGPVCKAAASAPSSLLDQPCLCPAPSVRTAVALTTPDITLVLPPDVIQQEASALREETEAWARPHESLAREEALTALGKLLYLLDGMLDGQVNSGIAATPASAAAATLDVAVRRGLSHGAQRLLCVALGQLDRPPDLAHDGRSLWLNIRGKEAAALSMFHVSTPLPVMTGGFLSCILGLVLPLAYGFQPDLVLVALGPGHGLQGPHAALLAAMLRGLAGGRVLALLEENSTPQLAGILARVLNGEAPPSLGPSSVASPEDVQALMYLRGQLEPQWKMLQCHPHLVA

Histone deacetylase 1 [4] = target: T5, Histone deacetylase 1 (Homo sapiens, UniProt Q13547); test: Inhibition of HDAC1 (unknown origin)
T5 sequence (Q13547 whole entry): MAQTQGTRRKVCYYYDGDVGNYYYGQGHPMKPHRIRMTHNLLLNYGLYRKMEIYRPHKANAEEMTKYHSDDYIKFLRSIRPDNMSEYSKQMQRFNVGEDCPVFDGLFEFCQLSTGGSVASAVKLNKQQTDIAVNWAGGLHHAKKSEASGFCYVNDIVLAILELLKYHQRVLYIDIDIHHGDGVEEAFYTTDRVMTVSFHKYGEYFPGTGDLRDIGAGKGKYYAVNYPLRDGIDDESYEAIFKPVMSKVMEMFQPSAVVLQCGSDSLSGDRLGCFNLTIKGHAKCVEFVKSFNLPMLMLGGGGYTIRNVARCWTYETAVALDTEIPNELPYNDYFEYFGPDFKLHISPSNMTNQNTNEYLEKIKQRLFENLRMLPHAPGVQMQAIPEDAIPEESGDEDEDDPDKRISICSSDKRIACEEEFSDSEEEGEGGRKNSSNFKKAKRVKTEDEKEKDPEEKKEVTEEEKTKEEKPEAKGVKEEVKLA

Histone deacetylase 2 [5] = target: T6, Histone deacetylase 2 (Homo sapiens, UniProt Q92769); test: Inhibition of HDAC2 (unknown origin)
T6 sequence (Q92769 whole entry): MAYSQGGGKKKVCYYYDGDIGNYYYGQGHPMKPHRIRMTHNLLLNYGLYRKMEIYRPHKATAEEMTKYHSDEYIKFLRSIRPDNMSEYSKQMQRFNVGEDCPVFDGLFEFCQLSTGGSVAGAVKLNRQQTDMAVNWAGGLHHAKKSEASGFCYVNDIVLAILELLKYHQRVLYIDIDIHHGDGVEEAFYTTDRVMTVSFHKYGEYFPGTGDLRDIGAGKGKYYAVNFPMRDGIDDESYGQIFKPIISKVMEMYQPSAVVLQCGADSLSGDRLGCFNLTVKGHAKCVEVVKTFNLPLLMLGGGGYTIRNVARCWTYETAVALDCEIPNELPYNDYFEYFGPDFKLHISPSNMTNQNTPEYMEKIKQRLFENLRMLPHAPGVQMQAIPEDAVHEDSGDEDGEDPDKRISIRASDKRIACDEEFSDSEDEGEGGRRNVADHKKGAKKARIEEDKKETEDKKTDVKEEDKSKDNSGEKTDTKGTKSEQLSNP

Histone deacetylase 3 [6] = target: T7, Histone deacetylase 3 (Homo sapiens, UniProt O15379); test: Inhibition of HDAC3 (unknown origin)
T7 sequence (O15379 whole entry): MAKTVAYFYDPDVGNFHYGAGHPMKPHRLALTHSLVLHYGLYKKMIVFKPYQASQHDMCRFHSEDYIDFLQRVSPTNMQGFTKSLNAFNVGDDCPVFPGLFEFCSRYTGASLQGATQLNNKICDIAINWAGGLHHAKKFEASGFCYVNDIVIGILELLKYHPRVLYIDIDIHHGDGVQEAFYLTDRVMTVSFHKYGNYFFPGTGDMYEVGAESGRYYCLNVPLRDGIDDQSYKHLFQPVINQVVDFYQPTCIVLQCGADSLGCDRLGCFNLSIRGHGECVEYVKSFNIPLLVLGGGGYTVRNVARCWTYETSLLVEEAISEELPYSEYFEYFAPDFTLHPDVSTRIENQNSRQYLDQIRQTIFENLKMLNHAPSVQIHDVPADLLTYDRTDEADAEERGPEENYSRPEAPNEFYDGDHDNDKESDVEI

[7] = Inhibition of LSD1-HDAC1-CoREST (unknown origin) using Boc-(Ac)Lys-AMC as substrate incubated for 20 mins by fluorescence-based assay; set-up: species or system Homo sapiens
Histone deacetylase 1 [8] = target: T5, Histone deacetylase 1; test: Inhibition of human HDAC1 using Boc-Lys(Ac)-AMC as substrate preincubated for 30 mins followed by substrate addition and measured after 60 mins by […] assay
Histone deacetylase 3 [9] = target: T7, Histone deacetylase 3; test: Inhibition of human HDAC3 using Boc-Lys(Ac)-AMC as substrate preincubated for 30 mins followed by substrate addition and measured after 60 mins by […] assay
[10] = target: T8, Protein deacetylase HDAC6 (Homo sapiens, UniProt Q9UBN7); test: Inhibition of human HDAC6 using Boc-Lys(Ac)-AMC as substrate preincubated for 30 mins followed by substrate addition and measured after 60 mins by […]
T8 sequence (Q9UBN7 whole entry): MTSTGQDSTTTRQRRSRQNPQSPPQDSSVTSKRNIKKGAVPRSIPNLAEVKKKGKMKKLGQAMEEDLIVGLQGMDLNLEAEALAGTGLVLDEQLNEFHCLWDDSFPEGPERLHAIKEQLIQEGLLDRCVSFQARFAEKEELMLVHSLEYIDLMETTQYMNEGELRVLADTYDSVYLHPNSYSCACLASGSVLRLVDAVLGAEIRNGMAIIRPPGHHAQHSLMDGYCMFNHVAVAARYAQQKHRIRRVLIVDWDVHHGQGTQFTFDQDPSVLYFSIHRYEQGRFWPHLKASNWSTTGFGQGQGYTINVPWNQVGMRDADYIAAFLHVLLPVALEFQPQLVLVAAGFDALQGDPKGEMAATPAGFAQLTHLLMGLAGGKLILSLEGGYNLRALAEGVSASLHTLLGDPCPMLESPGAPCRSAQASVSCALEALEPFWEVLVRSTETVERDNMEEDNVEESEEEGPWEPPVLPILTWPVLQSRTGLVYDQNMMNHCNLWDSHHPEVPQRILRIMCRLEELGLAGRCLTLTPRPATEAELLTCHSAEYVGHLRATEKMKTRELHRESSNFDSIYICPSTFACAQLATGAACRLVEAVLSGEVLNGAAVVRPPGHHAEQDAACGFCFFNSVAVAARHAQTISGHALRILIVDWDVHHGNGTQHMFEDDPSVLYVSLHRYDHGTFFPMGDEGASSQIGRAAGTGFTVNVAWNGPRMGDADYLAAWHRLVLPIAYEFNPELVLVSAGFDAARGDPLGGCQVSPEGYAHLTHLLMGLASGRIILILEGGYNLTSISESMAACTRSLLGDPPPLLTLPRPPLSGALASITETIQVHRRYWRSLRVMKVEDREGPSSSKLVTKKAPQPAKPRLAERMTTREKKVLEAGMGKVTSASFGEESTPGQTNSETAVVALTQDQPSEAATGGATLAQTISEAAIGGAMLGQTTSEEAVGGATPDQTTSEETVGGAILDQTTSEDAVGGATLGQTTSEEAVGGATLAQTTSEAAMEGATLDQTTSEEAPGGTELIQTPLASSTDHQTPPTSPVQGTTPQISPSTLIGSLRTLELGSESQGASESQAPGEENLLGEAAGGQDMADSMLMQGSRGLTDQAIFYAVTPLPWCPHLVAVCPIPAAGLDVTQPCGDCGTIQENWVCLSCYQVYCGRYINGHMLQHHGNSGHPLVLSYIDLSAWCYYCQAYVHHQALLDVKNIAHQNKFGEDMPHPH

Histone deacetylase 4 [11] = target: T9, Histone deacetylase 4 (Homo sapiens, UniProt P56524); test: Inhibition of human HDAC4 using Boc-Lys(tri-fluoracetyl)-AMC as substrate preincubated for 30 mins followed by substrate addition and measured after 60 mins by […] assay
T9 sequence (P56524 whole entry): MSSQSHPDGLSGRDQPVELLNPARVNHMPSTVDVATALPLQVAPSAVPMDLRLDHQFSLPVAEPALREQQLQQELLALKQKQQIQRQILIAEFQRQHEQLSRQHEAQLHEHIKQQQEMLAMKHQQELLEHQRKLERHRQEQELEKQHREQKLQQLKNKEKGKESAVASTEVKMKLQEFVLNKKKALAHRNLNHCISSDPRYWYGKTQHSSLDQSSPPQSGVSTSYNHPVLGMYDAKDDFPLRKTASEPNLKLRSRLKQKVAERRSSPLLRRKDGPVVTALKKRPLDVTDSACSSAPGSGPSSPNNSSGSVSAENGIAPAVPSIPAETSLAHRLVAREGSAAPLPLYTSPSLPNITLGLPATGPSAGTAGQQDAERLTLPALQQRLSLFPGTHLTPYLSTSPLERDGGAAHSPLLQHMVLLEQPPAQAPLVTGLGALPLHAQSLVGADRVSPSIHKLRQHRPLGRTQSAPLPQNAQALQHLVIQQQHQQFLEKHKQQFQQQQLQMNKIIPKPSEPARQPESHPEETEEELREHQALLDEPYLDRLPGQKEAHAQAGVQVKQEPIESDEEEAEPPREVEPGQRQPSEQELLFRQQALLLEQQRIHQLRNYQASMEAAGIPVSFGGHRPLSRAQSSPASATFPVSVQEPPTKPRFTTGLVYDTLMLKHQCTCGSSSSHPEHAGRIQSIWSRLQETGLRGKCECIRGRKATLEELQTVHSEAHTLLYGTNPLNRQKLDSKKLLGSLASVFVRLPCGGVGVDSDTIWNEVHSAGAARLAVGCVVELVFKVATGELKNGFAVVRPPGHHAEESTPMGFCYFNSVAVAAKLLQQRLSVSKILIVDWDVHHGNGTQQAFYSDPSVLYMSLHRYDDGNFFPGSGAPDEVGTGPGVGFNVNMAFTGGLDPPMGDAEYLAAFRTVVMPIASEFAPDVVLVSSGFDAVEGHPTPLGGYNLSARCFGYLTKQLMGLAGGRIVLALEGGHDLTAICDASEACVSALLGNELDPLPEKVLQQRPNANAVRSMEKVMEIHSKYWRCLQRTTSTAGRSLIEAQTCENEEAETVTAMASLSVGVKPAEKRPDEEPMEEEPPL

[12] = target: T4, Polyamine deacetylase HDAC10; test: Inhibition of HDAC10 (unknown origin)
Histone deacetylase 1 [13] = target: T5, Histone deacetylase 1; test: Inhibition of HDAC1 (unknown origin) using Ac-Leu-Gly-Lys(Ac)-AMC as substrate measured every 30 secs for 60 mins by fluorescence-based assay
Histone deacetylase 2 [14] = target: T6, Histone deacetylase 2; test: Inhibition of human HDAC2 expressed in Sf9 cells using Ac-Leu-Gly-Lys(Ac)-AMC as substrate measured every 30 secs for 60 mins by fluorescence-based assay
[15] = target: Histone deacetylase 3/Nuclear receptor corepressor 2 (HDAC3/NCoR2) (Homo sapiens, UniProt O15379); test: Inhibition of human C-terminal His-tagged HDAC3 (1 to 428 residues)/human N-terminal GST-tagged NcoR2 (395 to 489 residues) expressed in sf9 cells using Ac-Leu-Gly-Lys(Ac)-AMC as substrate measured every 30 secs for 60 mins by fluorescence-based assay
[16] = target: T4, Polyamine deacetylase HDAC10; test: Inhibition of recombinant human HDAC10 (2 to 631 residues) expressed in baculovirus infected sf9 cells using Fluor-de-lys as substrate preincubated for 15 mins followed by substrate addition and measured after 60 mins by fluorescence method
Histone deacetylase 9 [17] = target: T2, Histone deacetylase 9; test: Inhibition of C-terminal His-tagged human HDAC9 (604 to 1066 residues) expressed in baculovirus infected sf9 cells using Boc-L-Lys-MCA as substrate preincubated for 15 mins followed by substrate addition and measured after 60 mins by fluorescence method
Histone deacetylase 4 [18] = target: T9, Histone deacetylase 4; test: Inhibition of human HDAC4 expressed in baculovirus infected sf9 cells using Boc-L-Lys-MCA as substrate preincubated for 15 mins followed by substrate addition and measured after 60 mins by fluorescence method
Histone deacetylase 5 [19] = target: T1, Histone deacetylase 5; test: Inhibition of human HDAC5 using Boc-L-Lys-MCA as substrate preincubated for 15 mins followed by substrate addition and measured after 60 mins by fluorescence method
Histone deacetylase 11 = target: T10, Histone deacetylase 11 (Homo sapiens, UniProt Q96DB2); test: Inhibition of human C-terminal Flag-tagged HDAC11 expressed in sf9 cells using Boc-Lys(Ac)-AMC as substrate preincubated for 10 mins followed by substrate addition by fluorometry
T10 sequence (Q96DB2 whole entry): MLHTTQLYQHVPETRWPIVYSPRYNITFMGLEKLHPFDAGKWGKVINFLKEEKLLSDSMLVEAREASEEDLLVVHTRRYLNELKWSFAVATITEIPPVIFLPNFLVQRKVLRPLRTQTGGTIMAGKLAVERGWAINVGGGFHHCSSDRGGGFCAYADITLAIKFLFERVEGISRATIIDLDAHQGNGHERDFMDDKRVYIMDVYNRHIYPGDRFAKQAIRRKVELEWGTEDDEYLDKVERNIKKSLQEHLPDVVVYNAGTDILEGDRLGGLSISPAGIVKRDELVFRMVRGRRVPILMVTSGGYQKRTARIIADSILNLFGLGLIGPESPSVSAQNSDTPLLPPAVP

Histone deacetylase 4 [20] = target: T9, Histone deacetylase 4; test: Binding affinity to human full length N-terminal GST-tagged HDAC4 by surface plasmon resonance analysis

T1 sequence (Q9UQL6 whole entry): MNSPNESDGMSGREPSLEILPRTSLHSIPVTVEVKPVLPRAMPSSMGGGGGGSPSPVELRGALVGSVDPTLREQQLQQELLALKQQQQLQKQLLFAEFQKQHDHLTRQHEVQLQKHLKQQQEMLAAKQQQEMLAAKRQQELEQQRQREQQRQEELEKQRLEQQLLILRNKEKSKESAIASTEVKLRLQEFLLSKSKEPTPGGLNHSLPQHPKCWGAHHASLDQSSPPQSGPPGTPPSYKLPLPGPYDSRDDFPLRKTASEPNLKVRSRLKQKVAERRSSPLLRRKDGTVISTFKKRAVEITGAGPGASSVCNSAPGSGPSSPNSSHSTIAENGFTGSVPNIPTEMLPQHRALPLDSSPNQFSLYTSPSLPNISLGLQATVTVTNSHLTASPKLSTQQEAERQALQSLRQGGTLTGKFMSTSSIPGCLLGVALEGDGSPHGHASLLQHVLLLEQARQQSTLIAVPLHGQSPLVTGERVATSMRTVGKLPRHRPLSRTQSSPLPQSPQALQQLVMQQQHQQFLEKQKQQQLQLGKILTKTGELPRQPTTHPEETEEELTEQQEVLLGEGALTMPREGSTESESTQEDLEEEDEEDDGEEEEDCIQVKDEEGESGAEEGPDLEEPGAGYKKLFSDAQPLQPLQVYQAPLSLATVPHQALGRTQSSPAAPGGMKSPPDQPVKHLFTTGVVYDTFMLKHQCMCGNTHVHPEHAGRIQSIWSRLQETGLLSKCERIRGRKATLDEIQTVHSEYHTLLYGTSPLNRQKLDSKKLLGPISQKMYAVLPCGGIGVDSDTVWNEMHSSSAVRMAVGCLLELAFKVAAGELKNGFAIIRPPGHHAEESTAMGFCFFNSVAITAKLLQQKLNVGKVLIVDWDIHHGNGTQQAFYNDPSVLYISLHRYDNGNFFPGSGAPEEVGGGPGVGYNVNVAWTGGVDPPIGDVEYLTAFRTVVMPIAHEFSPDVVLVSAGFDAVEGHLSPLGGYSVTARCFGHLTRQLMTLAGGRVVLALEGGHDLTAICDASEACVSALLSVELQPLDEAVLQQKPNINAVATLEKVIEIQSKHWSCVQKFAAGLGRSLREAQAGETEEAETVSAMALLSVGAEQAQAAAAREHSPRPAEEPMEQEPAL

IC50 (Histone deacetylase 5 [1]): 0.048 µM
IC50 (Histone deacetylase 9 [2]): 0.168 µM
Structure (SMILES): CN(C)Cc1c(C(=O)NCCOc2ccc(C(=O)NO)cc2)oc2ccccc12 [ABEXINOSTAT]

IC50 (Histone deacetylase 1 [4]): 0.1 µM
IC50 (Histone deacetylase 2 [5]): 0.6 µM
IC50 (Histone deacetylase 3 [6]): 0.6 µM
Structure (SMILES): Cc1cn(C)nc1CN1CCC(c2ccc(C(=O)Nc3ccccc3N)cc2)CC1

IC50 (Histone deacetylase 5 [1]): 0.004 µM
IC50 (Histone deacetylase 9 [2]): 0.032 µM
IC50 [12]: 0.0005 µM
Structure (SMILES): Cn1cc(CNCC2CCN(c3ncc(C(=O)NO)cn3)CC2)c2ccccc21 [QUISINOSTAT]

IC50 [16]: 0.331 µM
IC50 (Histone deacetylase 9 [17]): 0.512 µM
IC50 (Histone deacetylase 4 [18]): > 1 µM
IC50 (Histone deacetylase 5 [19]): 0.532 µM
Structure (SMILES): CCN(CC)Cc1ccc2cc(COC(=O)Nc3ccc(C(=O)NO)cc3)ccc2c1 [GIVINOSTAT]

IC50 (Histone deacetylase 11): 0.6 µM
Structure (SMILES): Nc1ccccc1NC(=O)c1ccc(CNc2nccc(-c3cccnc3)n2)cc1 [MOCETINOSTAT]

The next lines start with the molecule.

Structure (SMILES): CCCCNNC(=O)c1ccc(Br)cc1
IC50 (Histone deacetylase 8): 2 µM
IC50 [3]: 15 µM

Structure (SMILES): Cc1ncsc1-c1ccc(CNC(=O)[C@@H]2C[C@@H](O)CN2C(=O)[C@@H](NC(=O)CCCCCCCCCCC(=O)Nc2ccc(C(=O)Nc3cc(-c4ccccc4)ccc3N)cc2)C(C)(C)C)cc1
IC50 [7]: 17 µM

Structure (SMILES): N=C1Sc2ccccc2C2=NCCCN12
IC50 (Histone deacetylase 1 [8]): 4 µM
IC50 (Histone deacetylase 3 [9]): > 50 µM
IC50 [10]: 7 µM
IC50 (Histone deacetylase 4 [11]): 9 µM

Structure (SMILES): C/C=C1\NC(=O)[C@@H](C)NC(=O)[C@@H](C(C)C)NC(=O)C[C@@H](CCC)OC(=O)[C@H](C(C)C)NC1=O
Ki (Histone deacetylase 1 [13]): 0.69 µM
Ki (Histone deacetylase 2 [14]): 0.37 µM
Ki [15]: 0.8 µM

Structure (SMILES): COc1cccc2c1c(O)c(C(=O)N(C)c1ccc(C(F)(F)F)cc1)c(=O)n2C [TASQUINIMOD]
Kd (Histone deacetylase 4 [20]): 0.01 µM
